# Experimental data taken from US20040132795A1, “Methods to screen and treat individuals with glaucoma or the propensity to develop glaucoma” (priority 2001, published 2004).
# Key:
# Type in all cases: in vivo, human
# [1] = Treatment with diclofenac in glaucomic patients possessing both the mt-1 and mt-11 mutations, mean diurnal IOP; details: 0.1% diclofenac
# [2] = Treatment with diclofenac for 6 months in the presence of the TIGR mt-1 mutation, mean diurnal IOP
# Excerpt: After treatment for 6 months with varying amounts of diclofenac in the presence of the mt-1 mutation, the following results are observed: […]
# [3] = Treatment with diclofenac in glaucomic patients having the TIGRmt-11 mutation, mean diurnal IOP; details: 0.1% diclofenac
# Excerpt: The same procedures described in Example II were followed with respect to administering Diclofenac to glaucomic patients having the […]-11 mutation.
# [4] = 0.03% diclofenac, mt-1 mutation present
# [5] = 0.06% diclofenac, mt-1 mutation present
# [6] = 0.1% diclofenac, mt-1 mutation present
smiles,measurement,setting,value
O=C(O)Cc1ccccc1Nc1c(Cl)cccc1Cl [Diclofenac],Mean Change in Diurnal IOP at 6 Months,[1]; mt-1 and mt-11 mutations absent,−0.6 mm Hg
same,Mean Change in Diurnal IOP at 6 Months,[1]; mt-1 and mt-11 mutations present,−2.9 mm Hg
same,Percentage of Patients Exhibiting a Decrease in Diurnal IOP >= 2 mm Hg After 6 Months of Treatment,[2]; [4],36%
same,Percentage of subjects exhibiting a Mean Diurnel IOP < 22 mm Hg After 6 Months of Treatment,[2]; [4],55%
same,Percentage of Patients Exhibiting a Decrease in Diurnal IOP >= 2 mm Hg After 6 Months of Treatment,[2]; [5],40%
same,Percentage of subjects exhibiting a Mean Diurnel IOP < 22 mm Hg After 6 Months of Treatment,[2]; [5],60%
same,Mean Change in Diurnal IOP at 6 Months,"[2]; 0.1% diclofenac, mt-1 mutation absent",−1.5 mm Hg
same,Mean Change in Diurnal IOP at 6 Months,[2]; [6],−2.1 mm Hg
same,Percentage of Patients Exhibiting a Decrease in Diurnal IOP >= 2 mm Hg After 6 Months of Treatment,[2]; [6],64%
same,Percentage of subjects exhibiting a Mean Diurnel IOP < 22 mm Hg After 6 Months of Treatment,[2]; [6],64%
same,Mean Change in Diurnal IOP at 6 Months,[3]; mt-11 mutation absent,−1.3 mm Hg
same,Mean Change in Diurnal IOP at 6 Months,[3]; mt-11 mutation present,−2.0 mm Hg
